Source: ChEMBL document CHEMBL1201862, “PubChem BioAssay data set” (2004)
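48-hour exposure; five concentrations; linearly interpolated endpoints. The concentration for 50% growth inhibition is given as GI50.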 Calls of active or inactive are those of the source. No stated cut-off is given here; in the data, active = GI50 up to about 1.1 µM and inactive = higher. Non-standard residues stand in square brackets, D forms with d. Residues, ends and D or L forms follow the SMILES beside them. ξ: configuration not given here. *: point of attachment. Cbz = O=C(OCc1ccccc1)*; ξK = NCCCCC(N)C(=O)O

Tests used:
Test in all cases: inhibition of tumour cell growth, NCI panel, 48 h
OVCAR-8 = system: OVCAR-8
SF-295 = system: SF-295
COLO 205 = system: COLO 205
NCI-H23 = system: NCI-H23
UACC-257 = system: UACC-257
KM12 = system: KM12
SK-OV-3 = system: SK-OV-3
SNB-75 = system: SNB-75
MOLT-4 = system: MOLT-4
786-0 = system: 786-0
IGROV-1 = system: IGROV-1
SNB-19 = system: SNB-19
SR = system: SR
HCT-15 = system: HCT-15
T47D = system: T47D
Hs-578T = system: Hs-578T
MDA-MB-231 = system: MDA-MB-231
U-251 = system: U-251
SK-MEL-5 = system: SK-MEL-5
SK-MEL-28 = system: SK-MEL-28

Row | Compound | GI50 (OVCAR-8) | GI50 (SF-295) | GI50 (COLO 205) | GI50 (NCI-H23) | GI50 (UACC-257) | GI50 (KM12) | GI50 (SK-OV-3) | GI50 (SNB-75) | GI50 (MOLT-4) | GI50 (786-0) | GI50 (IGROV-1) | GI50 (SNB-19) | GI50 (SR) | GI50 (HCT-15) | GI50 (T47D) | GI50 (Hs-578T) | GI50 (MDA-MB-231) | GI50 (U-251) | GI50 (SK-MEL-5) | GI50 (SK-MEL-28)
1 | O=C1C([P+](c2ccccc2)(c2ccccc2)c2ccccc2)=C([O-])C(=Cc2ccc(Cl)c(Cl)c2)C([O-])=C1[P+](c1ccccc1)(c1ccccc1)c1ccccc1 | 2.23 µM (inactive) | 2.65 µM (inactive) | 1.73 µM (inactive) | 3.51 µM (inactive) | 2.43 µM (inactive) | 2.01 µM (inactive) | 1.93 µM (inactive) | 4.02 µM (inactive) | 0.421 µM (active) | 2.14 µM (inactive) | 2.62 µM (inactive) | 3.16 µM (inactive) | 0.925 µM (active) | 4.79 µM | 3.37 µM (inactive) | 4.02 µM (inactive) | 2.96 µM (inactive) | 2.47 µM (inactive) | 2.34 µM (inactive) | 2.49 µM (inactive)
2 | C=C[C@]1(C)CC[C@]2(C)C(CC[C@@]3(C)C2C[C@H](O)[C@H](O)[C@@]3(C)O)C1 (stereo not given in full) | > 100 µM (inactive) | > 100 µM (inactive) | > 100 µM (inactive) | > 100 µM (inactive) | > 100 µM (inactive) | > 100 µM (inactive) | > 100 µM (inactive) | > 100 µM (inactive) | > 100 µM (inactive) | > 100 µM (inactive) | > 100 µM (inactive) | > 100 µM (inactive) | > 100 µM (inactive) | > 100 µM | > 100 µM (inactive) | > 100 µM (inactive) | > 100 µM (inactive) | > 100 µM (inactive) | > 100 µM (inactive) | > 100 µM (inactive)
3 | Cc1nn(C(=O)c2ccc(Cl)cc2)c2c1C(c1ccc([N+](=O)[O-])cc1)SC(=N)N2 (stereo not given) | > 10 µM (inactive) | > 10 µM (inactive) | > 10 µM (inactive) | > 10 µM (inactive) | > 10 µM (inactive) | > 10 µM (inactive) | > 10 µM (inactive) | > 10 µM (inactive) | > 10 µM (inactive) | > 10 µM (inactive) | > 10 µM (inactive) | > 10 µM (inactive) | > 10 µM (inactive) | > 10 µM | > 10 µM (inactive) | > 10 µM (inactive) | > 10 µM (inactive) | > 10 µM (inactive) | > 10 µM (inactive) | > 10 µM (inactive)
4 | COC12c3ccccc3-c3ccccc3C1[C@@H](C(=O)O)[C@H]2C(=O)O (stereo not given in full) | > 10 µM (inactive) | > 10 µM (inactive) | > 10 µM (inactive) | > 10 µM (inactive) | > 10 µM (inactive) | > 10 µM (inactive) | > 10 µM (inactive) | > 10 µM (inactive) | > 10 µM (inactive) | > 10 µM (inactive) | > 10 µM (inactive) | > 10 µM (inactive) | > 10 µM (inactive) | > 10 µM | > 10 µM (inactive) | > 10 µM (inactive) | > 10 µM (inactive) | > 10 µM (inactive) | > 10 µM (inactive) | > 10 µM (inactive)
5 | CCC1(OC(=O)CN2CCN(CCO)CC2)C(=O)OCc2c1cc1n(c2=O)Cc2cc3ccccc3nc2-1 (stereo not given) | 0.522 µM (active) | 0.141 µM (active) | 2.04 µM (inactive) | 0.167 µM (active) | 0.771 µM (active) | 0.457 µM (active) | 1.17 µM (inactive) | 0.234 µM (active) | 0.034 µM (active) | 0.13 µM (active) | 0.778 µM (active) | 0.216 µM (active) | 0.0221 µM (active) | 1.49 µM | 0.212 µM (active) | 14 µM (inactive) | 14.1 µM (inactive) | 0.143 µM (active) | 0.281 µM (active) | 3.33 µM (inactive)
6 | OCCCCCCCCCCCOc1ccc(C2OCC3(CC=CCC3)CO2)cc1 (stereo not given) | 17.2 µM (inactive) | 17.6 µM (inactive) | 22 µM (inactive) | 16.4 µM (inactive) | 16.8 µM (inactive) | 13 µM (inactive) | 19.3 µM (inactive) | 11.8 µM (inactive) | 34.2 µM (inactive) | 13.8 µM (inactive) | 16.1 µM (inactive) | 19.9 µM (inactive) | 0.43 µM (active) | 15.2 µM | 13.3 µM (inactive) | 7.87 µM (inactive) | 16.9 µM (inactive) | 13.9 µM (inactive) | 16.4 µM (inactive) | 16.9 µM (inactive)
7 | CO/N=C(\C(=O)Nc1cncs1)c1csc(N)n1 | > 10 µM (inactive) | > 10 µM (inactive) | > 10 µM (inactive) | > 10 µM (inactive) | > 10 µM (inactive) | > 10 µM (inactive) | > 10 µM (inactive) | > 10 µM (inactive) | > 10 µM (inactive) | > 10 µM (inactive) | > 10 µM (inactive) | > 10 µM (inactive) | > 10 µM (inactive) | > 10 µM | > 10 µM (inactive) | > 10 µM (inactive) | > 10 µM (inactive) | > 10 µM (inactive) | > 10 µM (inactive) | > 10 µM (inactive)
8 | Cc1ccc(-c2nc(N/N=C/C=C/c3ccccc3)c3ccccc3n2)cc1 | 44.2 µM (inactive) | 23.2 µM (inactive) | 57.3 µM (inactive) | 44.1 µM (inactive) | 34 µM (inactive) | 54 µM (inactive) | 23.8 µM (inactive) | 33.6 µM (inactive) | > 100 µM (inactive) | 30 µM (inactive) | 19.2 µM (inactive) | 37.6 µM (inactive) | > 100 µM (inactive) | 48.4 µM | 60.5 µM (inactive) | > 100 µM (inactive) | 16.6 µM (inactive) | 33.3 µM (inactive) | 14.8 µM (inactive) | 34.2 µM (inactive)
9 | Nc1cc2c3c(cccc3c1)NC2=O | > 100 µM (inactive) | > 100 µM (inactive) | > 100 µM (inactive) | 79.8 µM (inactive) | > 100 µM (inactive) | > 100 µM (inactive) | 94 µM (inactive) | 14.6 µM (inactive) | 24 µM (inactive) | > 100 µM (inactive) | > 100 µM (inactive) | 84.9 µM (inactive) | > 100 µM (inactive) | > 100 µM | 28 µM (inactive) | > 100 µM (inactive) | 70.3 µM (inactive) | 31.8 µM (inactive) | 92.3 µM (inactive) | > 100 µM (inactive)
10 | CC(C)[C@@H]1CC[C@@H](C)C[C@H]1OC(=O)/C=C1/C2C=CC(O2)C1C(=O)O[C@@H]1C[C@H](C)CC[C@H]1C(C)C (stereo not given in full) | > 100 µM (inactive) | 65.3 µM (inactive) | > 100 µM (inactive) | > 100 µM (inactive) | 46.2 µM (inactive) | > 100 µM (inactive) | > 100 µM (inactive) | > 100 µM (inactive) | 43.8 µM (inactive) | > 100 µM (inactive) | > 100 µM (inactive) | > 100 µM (inactive) | 41.7 µM (inactive) | > 100 µM | 45.3 µM (inactive) | > 100 µM (inactive) | > 100 µM (inactive) | > 100 µM (inactive) | > 100 µM (inactive) | > 100 µM (inactive)
11 | CCCCC(/C=C\COC1CCCCO1)=C/C(=O)OCC (stereo not given) | 94.4 µM (inactive) | 44.4 µM (inactive) | > 100 µM (inactive) | > 100 µM (inactive) | > 100 µM (inactive) | 46.6 µM (inactive) | > 100 µM (inactive) | 48.8 µM (inactive) | 25.1 µM (inactive) | 65.2 µM (inactive) | 61.2 µM (inactive) | 98.2 µM (inactive) | 32.6 µM (inactive) | > 100 µM | 55.3 µM (inactive) | 83.9 µM (inactive) | > 100 µM (inactive) | 44.8 µM (inactive) | 92.5 µM (inactive) | > 100 µM (inactive)
12 | NCCCCC(NC(=O)OCc1ccccc1)C(=O)NCC(N)=O (stereo not given) (Cbz-[ξK]-Gly-NH2) | > 100 µM (inactive) | > 100 µM (inactive) | > 100 µM (inactive) | > 100 µM (inactive) | > 100 µM (inactive) | > 100 µM (inactive) | > 100 µM (inactive) | > 100 µM (inactive) | > 100 µM (inactive) | > 100 µM (inactive) | > 100 µM (inactive) | > 100 µM (inactive) | > 100 µM (inactive) | > 100 µM | > 100 µM (inactive) | > 100 µM (inactive) | > 100 µM (inactive) | > 100 µM (inactive) | > 100 µM (inactive) | > 100 µM (inactive)
13 | COc1ccc(C(=O)C#Cc2cnc(OC)nc2OC)cc1 | 1.56 µM (inactive) | 12.4 µM (inactive) | 1.57 µM (inactive) | 1.48 µM (inactive) | 2.09 µM (inactive) | 2.68 µM (inactive) | 14.1 µM (inactive) | 2.22 µM (inactive) | 0.0531 µM (active) | 1.94 µM (inactive) | 1.45 µM (inactive) | 12.2 µM (inactive) | 0.0491 µM (active) | 1.02 µM | 1.89 µM (inactive) | 4.07 µM (inactive) | 32400 µM (inactive) | 1.33 µM (inactive) | 1.34 µM (inactive) | 1.61 µM (inactive)
14 | CCOC1OC(C)(C=C(C#N)C#N)CCC1C (stereo not given) | 27.7 µM (inactive) | > 67.5 µM (inactive) | 36.8 µM (inactive) | 29.7 µM (inactive) | > 71.6 µM (inactive) | > 74 µM (inactive) | > 100 µM (inactive) | 14.6 µM (inactive) | 33.3 µM (inactive) | 25.9 µM (inactive) | 10.5 µM (inactive) | > 57.3 µM (inactive) | 22.1 µM (inactive) | 25.5 µM | 44.2 µM (inactive) | 36 µM (inactive) | 88.1 µM (inactive) | 52.7 µM (inactive) | 53.8 µM (inactive) | 47.2 µM (inactive)
